Reference: patent US11931345B2, “Thiazolidinedione analogs for the treatment of NAFLD and metabolic diseases” (Cirius Therapeutics, Inc., priority 2018, dated 2024)

Legend:
[1] = test system: uncoupling protein 1 (UCP1); assay: UCP1 expression (Western blot) in brown adipose precursors in vitro, with T3; assay type: cell-based; settings: added to T3 0 to 30 nM; sensitivity and magnitude of response; FIG. 14
Text: FIG. 14. Is a graphic representation of the data of thyroid hormone with MSDC-0602 in vitro.
The addition of the thyroid agonist not only increases the maximum response. […] The response measured here is increased expression of the uncoupling protein 1 (UCP1) on Western blot—a measure of differentiation of brown adipose cells.

[2] = test system: diet-induced obese (60% HF diet) WT (fl/fl) and LS-MPC2-/- mice; assay: Intraperitoneal glucose tolerance test and plasma insulin in diet-induced obese WT and LS-MPC2-/- mice after a single dose; assay type: in vivo, mouse; settings: for glucose tolerance (GTT): 20 h after a single dose of 30 mg/kg; for plasma insulin: single dose 30 mg/kg
Method: (§1) 8 week old WT and LS-MPC2−/− mice were fed a diet of 60% fat (Research Diets D12492) for 20 weeks to induce obesity and insulin resistance. Intraperitoneal glucose tolerance tests (GTT) were performed after a 4 h fast by injection of 1 g/kg D-glucose in saline i.p. to assess glucose tolerance. 3 days after the initial GTT, mice were randomized to receive a single gavage of either vehicle (1% CMC, 0.01% Tween-80) or 30 mg/kg MSDC-0602K. Plasma insulin was measured by Singulex assay and plasma ALT levels were measured by commercially-available kits (Teco Diagnostics). qPCR was performed by isolation of total RNA with RNA-Bee and reverse transcription with a high-capacity cDNA synthesis kit (Invitrogen). qPCR was performed on an Applied Biosystems real-time thermocycler.

[3] = test system: diet-induced obese (60% HF diet) WT (fl/fl) and LS-MPC2-/- mice; assay: Markers of liver injury (plasma ALT, qPCR gene expression) in obese WT and LS-MPC2-/- mice after a single dose; assay type: in vivo, mouse
Method: as §1

[4] = phase 2 clinical trial, cited from earlier work
mouse model of NASH = settings: effects require MPC expression in hepatocytes; cited from earlier work
pancreatic islets = assay: Pancreas histology and IHC of ZDSD/Pco rats (insulin, Ki67, PDX-1, Bcl2); assay type: in vivo, rat; settings: pancreas at sacrifice; high fat diet; oral MSDC-0602 30 mg/kg, exenatide s.q. 1 μg
Method: (§2) Male ZDSD/Pco rats were maintained on standard chow 5008 (Purina) until treatment groups were switched to the high fat diet (Purina 5SCA). […] Control rats (given both vehicles) were maintained on the normal diet and the treatment groups were switched to the high fat diet as indicated. Glucose and insulin were measured weekly from tail vein samples. On day 36 an oral glucose tolerance test (OGTT); 2 g/kg) was conducted after a 16 hour fast. Glucose samples were taken at 0, 30, 60, 90, and 120 minutes; insulin was measured at 0 and 30 minutes and the change at 30 minutes is shown. Data are mean and SE; N=10. At sacrifice, the pancreas was fixed in formalin and shipped to MSU for histology and IHC. A range of anti-bodies were used to identify and quantify the presence of insulin, Ki67, collagen, CD3 lymphocytes, PDX-1 and Bcl2. An Image-Pro system was used with Image J to quantify the degree of positive staining. […] Five matched groups of ZDSD/Pco rats were selected at 14 weeks of age and then treated for 6 weeks. […] At sacrifice, the pancreas was removed, fixed, and stained for insulin, PDX1, and Ki67, as an index of proliferation.

[5] = test system: ZDSD/Pco rats challenged with a high fat diet; assay: ZDSD/Pco rats on high fat diet: circulating glucose, insulin, OGTT; assay type: in vivo, rat; settings: over 4 week treatment, compared to group 2 (control treatment on high fat diet); oral MSDC-0602 30 mg/kg, exenatide s.q. 1 μg
Method: as §2

serum miRNAs = assay: Serum miRNA sequencing in NASH (HTF-C) diet mice; assay type: in vivo, mouse
Method: To begin evaluating the exosome cargo of MSDC-0602K-treated mice, WT mice were fed with either a low fat (LF) control diet (Research Diets D09100304) or high trans-fat, fructose, cholesterol (HTF-C) diet composed of 40% trans-fat, 20% fructose, 2% cholesterol (Research Diets D09100301).
Total RNA was isolated from 400 μL of serum and small RNA sequencing was performed by adapter ligation, cDNA synthesis and size selection of 145-160 base pairs. Sequencing was then performed on an Illumina HiSeq3000.

[6] = target: T1, mitochondrial pyruvate carrier (MPC) (Homo sapiens, UniProt O95563+Q9Y5U8); settings: cited from earlier work
T1 sequence (Q9Y5U8 1-109): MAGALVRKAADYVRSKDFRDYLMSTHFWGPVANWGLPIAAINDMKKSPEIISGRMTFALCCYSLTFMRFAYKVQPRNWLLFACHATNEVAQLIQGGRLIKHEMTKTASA
T1 sequence (O95563 1-127): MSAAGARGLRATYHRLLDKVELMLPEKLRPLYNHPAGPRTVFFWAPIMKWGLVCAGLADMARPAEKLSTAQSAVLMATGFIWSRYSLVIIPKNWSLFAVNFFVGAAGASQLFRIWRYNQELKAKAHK

| SMILES | increase of UCP1 expression, interaction with thyroid hormone [1] | glucose tolerance (GTT) ([2]; WT mice) | liver injury, major acute effects ([3]; acute dosing, effects require hepatocyte MPC) | circulating glucose ([4]; FIG. 1A) | circulating insulin ([4]; FIG. 1B) | liver damage (mouse model of NASH) | insulin staining (pancreatic islets) | number of islet cells (pancreatic islets) | glucose tolerance (GTT) ([2]; LS-MPC2-/- mice) | plasma insulin ([2]; LS-MPC2-/- mice) | plasma insulin ([2]; WT mice) | glucose levels [5] | plasma ALT and liver injury gene expression, response to acute treatment ([3]; LS-MPC2-/- mice, single dose) | plasma ALT concentrations ([3]; WT mice, single dose, FIG. 11A) | gene expression for hepatic stellate cell activation and fibrotic scar formation ([3]; WT mice, single dose, FIG. 11B) | serum miRNAs altered in NASH model (serum miRNAs; HTF-C diet containing 331 ppm MSDC-0602, heat map of ~230 miRNAs) | serum miRNAs upregulated in NASH (mmu-miR-29c-3p, mmu-miR-802-3p, mmu-miR-802-5p) (serum miRNAs; HTF-C diet, FIGS. 13A-13C) | serum miRNAs down in NASH (mmu-miR-127-3p, mmu-miR-129-2-3p, mmu-miR-615-3p) (serum miRNAs; HTF-C diet, FIGS. 13D-13F) | serum miRNAs mmu-miR-129-5p, mmu-miR-205-5p (serum miRNAs; HTF-C diet, FIGS. 13G-13H) | MPC binding and modulation [6] |
| --- | --- | --- | --- | --- | --- | --- | --- | --- | --- | --- | --- | --- | --- | --- | --- | --- | --- | --- | --- | --- |
| COc1cccc(C(=O)COc2ccc(CC3SC(=O)[N-]C3=O)cc2)c1.[K+] (stereo not shown) [MSDC-0602K] | synergistic | improves glucose tolerance | attenuate liver injury | – | – | – | – | – | – | – | – | – | – | – | – | – | – | – | – | – |
| COc1cccc(C(=O)COc2ccc(CC3SC(=O)NC3=O)cc2)c1 (stereo not shown) [MSDC-0602] | synergy (much larger response) | improved glucose tolerance | – | lowered | lowered | prevents and reverse liver damage | increased | increased | no improvement in glucose tolerance | decreased | decreased | significantly reduced | refractory | decreased | decreased | largely corrected | down | up | large effect | binds and modulates |
